The values that follow come from US9486422B2, “Small molecule inhibitors of Mcl-1 and the uses of thereof” (THE REGENTS OF THE UNIVERSITY OF MICHIGAN, priority 2011, dated 2016).

The target of experiment [1] is T1, Mcl-1 (Homo sapiens, UniProt Q07820). The experiment in a line: FP-based binding assay, Mcl-1. The conditions noted are these: for IC50: Flu-BID 2 nM, Mcl-1 90 nM, read-out: Mcl-1 IC50 ± SD; for Ki: read-out: Mcl-1 Ki ± SD.
Target sequence in this assay (Q07820 171-327): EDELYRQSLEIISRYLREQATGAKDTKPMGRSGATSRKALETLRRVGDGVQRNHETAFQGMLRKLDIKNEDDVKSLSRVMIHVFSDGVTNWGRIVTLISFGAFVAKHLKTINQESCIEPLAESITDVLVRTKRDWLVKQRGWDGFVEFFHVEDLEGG
The next experiment deals with T2, A1/Bfl-1 (Homo sapiens, UniProt Q16548).
T2 sequence (Q16548 1-151): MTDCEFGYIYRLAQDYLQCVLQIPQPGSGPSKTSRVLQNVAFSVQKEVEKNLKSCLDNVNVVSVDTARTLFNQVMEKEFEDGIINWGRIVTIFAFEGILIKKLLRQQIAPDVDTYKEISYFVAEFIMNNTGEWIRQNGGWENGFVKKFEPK
In words: FP-based binding assay, A1/Bfl-1. The conditions noted are these: for Ki: read-out: A1/Bfl-1 Ki ± SD.

Another experiment concerns the target T3, Bcl-2 (Homo sapiens, UniProt P10415).
T3 construct: His-tagged proteins containing; fused on or other part: A 16-residue segment of the flexible loop of Bcl-xL (BCL2L1, Q07817; given as residues 35 to 50) set into the Bcl-2 loop region; His tag with TEV site from the pHis-TEV vector
In words: FP-based binding assay, Bcl-2. The following applies: competitive FP, Flu-BID 2 nM, protein 60 nM; read-out: Bcl-2 Ki ± SD.

The target in a further experiment is T4, Bcl-w (Homo sapiens, UniProt Q92843).
T4 sequence (Q92843 1-155): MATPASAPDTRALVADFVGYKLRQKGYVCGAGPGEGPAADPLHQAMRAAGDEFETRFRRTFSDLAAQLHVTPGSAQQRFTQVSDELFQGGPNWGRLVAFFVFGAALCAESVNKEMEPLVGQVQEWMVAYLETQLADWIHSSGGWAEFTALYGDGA
The experiment in a line: FP-based binding assay, Bcl-w. The conditions noted are these: for Ki: competitive FP, FAM-BID 2 nM, protein 40 nM, read-out: Bcl-w Ki ± SD.

In the next experiment the target is Bcl-xL (Homo sapiens, UniProt Q07817, DEL45-85). In words: FP-based binding assay, Bcl-xL. The following applies: read-out: Bcl-xL Ki ± SD.
Bcl-xL, sequence (Q07817 other isoform, or with tags, fused parts or gaps DEL45-85): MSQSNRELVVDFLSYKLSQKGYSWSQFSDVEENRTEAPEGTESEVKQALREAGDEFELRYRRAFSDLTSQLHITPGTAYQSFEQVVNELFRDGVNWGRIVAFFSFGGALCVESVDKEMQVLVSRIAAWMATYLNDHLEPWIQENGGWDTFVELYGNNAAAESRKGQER
For experiment [2], the target named is T5, cellular Mcl-1 protein (2LMP cell lysate) (Homo sapiens, UniProt Q07820).
T5 construct: endogenous in cells; host or cells: 2LMP (subclone of MDA-MB-231) cell lysate
T5 sequence (Q07820 whole entry): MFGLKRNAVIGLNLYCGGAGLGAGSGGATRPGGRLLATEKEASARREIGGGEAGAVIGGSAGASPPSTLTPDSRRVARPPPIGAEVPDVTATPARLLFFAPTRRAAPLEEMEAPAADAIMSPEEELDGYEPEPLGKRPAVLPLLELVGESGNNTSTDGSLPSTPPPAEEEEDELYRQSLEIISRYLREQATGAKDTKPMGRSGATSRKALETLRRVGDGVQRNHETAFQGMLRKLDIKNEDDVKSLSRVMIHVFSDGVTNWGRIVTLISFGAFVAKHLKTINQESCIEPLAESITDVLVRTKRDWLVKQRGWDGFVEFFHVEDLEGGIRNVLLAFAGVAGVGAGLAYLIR
The experiment in a line: Biotin-streptavidin pull-down with biotin-labeled Noxa BH3 peptide. Type of experiment: binding. How it is done:
Human breast cancer 2LMP cells, a subclone of the MDA-MB-231 cell line, were lysed in CHAPS buffer (10 mM HEPES (pH 7.4), 2.5 mM EDTA, 150 mM NaCl, 1.0% CHAP). Pre-cleared cell lysates were incubated with different concentrations of tested compounds, followed by incubation with biotinylated Noxa BH3 peptide (residues 18-43) and streptavidin-agarose beads to pull-down Mcl-1 protein bound to Noxa peptide. Beads were washed with CHAPS buffer, and Mcl-1 protein was eluted by boiling in SDS-PAGE sample buffer and analyzed by Western blotting using Mcl-1 antibody (Santa Cruz). DMSO alone was used as a control for nonspecific pull-down.

Experiment [3] has as its target T1, Mcl-1. The conditions noted are these: cited from earlier work.
Target sequence in this assay (Q07820 whole entry): as above
[4] abbreviates: competitive FP, Ki calculated from IC50.
The mark [5] stands for this setting: competitive FP, FAM-BID 1 nM, protein 4 nM.
Where [6] appears, read: competitive FP, FAM-BID 2 nM, protein 50 nM.

Like-named read-outs stand apart in the source and are kept apart here. Some results are limits rather than exact numbers.

T3 sequence (P10415 with tags, fused parts or gaps with the stated changes): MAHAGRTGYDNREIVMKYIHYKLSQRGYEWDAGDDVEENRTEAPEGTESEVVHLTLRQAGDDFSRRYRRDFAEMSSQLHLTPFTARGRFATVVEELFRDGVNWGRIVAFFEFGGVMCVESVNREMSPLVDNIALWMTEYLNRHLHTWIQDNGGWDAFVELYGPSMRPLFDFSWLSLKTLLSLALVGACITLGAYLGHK

Consider `O=C(O)CSc1cc(NS(=O)(=O)c2ccc(Br)cc2)ccc1O` [Compound 22, 2-((5-(4-Bromophenylsulfonamido)-2-hydroxyphenyl)thio)acetic acid], for which, at Mcl-1 [1] (competitive FP), the 50% inhibitory concentration (IC50) (as a rule, the concentration that gives 50% inhibition) is over 800 µM. Also, the Ki on Mcl-1 [1] (setting [4]) is over 200 µM; on A1/Bfl-1 (setting [5]), over 140 µM; at Bcl-2, over 200 µM; on Bcl-w, over 90 µM; at Bcl-xL (setting [6]) it was over 130 µM.
On to `O=C(O)CSc1cc(NS(=O)(=O)c2ccc(Oc3ccccc3)cc2)c2ccccc2c1O` [Compound 18, 2-((1-Hydroxy-4-(4-phenoxyphenylsulfonamido)naphthalen-2-yl)thio)acetic acid], for which the Ki at A1/Bfl-1 (setting [5]) worked out at 3.36 ± 0.56 µM; at Bcl-w, 1.58 ± 0.35 µM; on Bcl-xL (setting [6]) it was 10.6 ± 1.53 µM.
Consider `O=C(O)CSc1cc(NS(=O)(=O)c2ccc(-c3ccccc3)cc2)c2ccccc2c1O` [Compound 14, 2-((4-([1,1′-Biphenyl]-4-ylsulfonamido)-1-hydroxynaphthalen-2-yl)thio)acetic acid], for which the “fold improved binding to Mcl-1 compared to 2” value (“fold improved binding” for short) on Mcl-1 [1] stood at 9 fold. Moreover, the 50% inhibitory concentration (IC50) at Mcl-1 [1] (competitive FP) stood at 1.4 ± 0.36 µM. In addition, the Ki stood at 0.37 ± 0.1 µM at Mcl-1 [1], 2.34 ± 0.37 µM on A1/Bfl-1, 1.92 ± 0.37 µM on Bcl-w and 8.05 ± 0.5 µM on Bcl-xL.
On to `CC[C@H](C)[C@H](NC(=O)[C@H](CC(N)=O)NC(=O)[C@H](CCCNC(=N)N)NC(=O)[C@@H](NC(=O)[C@@H](NC(=O)[C@H](CC(=O)O)NC(=O)[C@H](CCC(=O)O)NC(=O)c1ccc2c(c1)C(=O)OC21c2ccc(O)cc2Oc2cc(O)ccc21)[C@@H](C)CC)[C@@H](C)CC)C(=O)N[C@@H](C)C(=O)N[C@@H](CCCNC(=N)N)C(=O)N[C@@H](Cc1c[nH]cn1)C(=O)N[C@@H](CC(C)C)C(=O)N[C@@H](C)C(=O)N[C@@H](CCC(N)=O)C(=O)N[C@H](C(=O)NCC(=O)N[C@@H](CC(=O)O)C(=O)N[C@@H](CO)C(=O)N[C@@H](CCSC)C(=O)N[C@@H](CC(=O)O)C(=O)N[C@@H](CCCNC(=N)N)C(=O)O)C(C)C` [FAM-BID, reference compound], for which the Kd came to 0.00083 ± 6e-05 µM at A1/Bfl-1 (saturation experiments, tracer 2 nM, read-out: Kd of fluorescent probe to A1/Bfl-1) and 0.0055 ± 0.0016 µM at Bcl-w (saturation experiments, tracer 2 nM, read-out: Kd of fluorescent probe to Bcl-w).
As to `O=C(O)CSc1cc(NS(=O)(=O)c2cccs2)c2ccccc2c1O` [Compound 1, 2-((1-Hydroxy-4-(thiophene-2-sulfonamido)naphthalen-2-yl)thio)acetic acid], the results for the Ki on A1/Bfl-1 (setting [5]) and on Bcl-w were 6.14 ± 1 µM and 37.5 ± 7.96 µM, respectively. Moreover, the “disruption of BL-Noxa/cellular Mcl-1 interaction, result in words” value in experiment [2] is “effectively disrupted”.
Turning to `O=C(O)CSc1cc(NS(=O)(=O)c2ccccc2-c2ccccc2)c2ccccc2c1O` [Compound 16, 2-((4-([1,1′-Biphenyl]-2-ylsulfonamido)-1-hydroxynaphthalen-2-yl)thio)acetic acid], the “fold improved binding” value on Mcl-1 [1] is 2 fold. Also, on Mcl-1 [1] (competitive FP), the IC50 turned out to be 7.47 ± 1.47 µM. Moreover, the Ki was 2.03 ± 0.41 µM at Mcl-1 [1], 17.3 ± 0.56 µM on A1/Bfl-1, 4.41 ± 0.39 µM at Bcl-w and 48.1 ± 3.28 µM at Bcl-xL.
On to `COC(=O)CSc1cc(NS(=O)(=O)c2ccc(Br)cc2)c2ccccc2c1O` [Compound 29, Methyl 2-((4-(4-bromophenylsulfonamido)-1-hydroxynaphthalen-2-yl)thio)acetate], for which the IC50 on Mcl-1 [1] (competitive FP) came to 18.6 ± 4.93 µM. Moreover, the Ki on Mcl-1 [1] (setting [4]) was 5.08 ± 1.35 µM; at A1/Bfl-1 (setting [5]) it was over 140 µM; at Bcl-2, 23.8 ± 5.08 µM; on Bcl-w it was over 90 µM; on Bcl-xL (setting [6]), over 130 µM.
Turning to `NC(=O)CSc1cc(NS(=O)(=O)c2ccc(Br)cc2)c2ccccc2c1O` [Compound 33, 2-((4-(4-Bromophenylsulfonamido)-1-hydroxynaphthalen-2-yl)thio)acetamide], at Mcl-1 [1] (competitive FP), the half-maximal inhibitory concentration (IC50) worked out at 6.27 ± 1.28 µM. For the same molecule, the Ki on Mcl-1 [1] turned out to be 1.71 ± 0.35 µM.
Regarding `O=C(O)CCSc1cc(NS(=O)(=O)c2ccc3ccccc3c2)c2ccccc2c1O` [Compound 34, 3-((1-Hydroxy-4-(naphthalene-2-sulfonamido)naphthalen-2-yl)thio)propanoic acid], on Mcl-1 [1] (competitive FP), the IC50 was 4.2 ± 1.25 µM. In addition, the Ki on Mcl-1 [1] (setting [4]) is 1.13 ± 0.34 µM.
The matching figures for `O=C(O)CSc1cc(NC(=O)Cc2ccccc2)c2ccccc2c1O` [Compound 24, 2-((1-Hydroxy-4-(2-phenylacetamido)naphthalen-2-yl)thio)acetic acid]: 154 ± 40.2 µM and 42.4 ± 11 µM.
Regarding `O=C(O)CSc1cc(NS(=O)(=O)c2ccc(C(=O)O)cc2)c2ccccc2c1O` [Compound 20], the 50% inhibitory concentration (IC50) at Mcl-1 [1] (competitive FP) was determined as 17.4 µM. The Ki on Mcl-1 [1] (setting [4]) is 4.76 µM.
With `Cc1ccc(S(=O)(=O)Nc2cc(SCC(=O)O)c(O)c3ccccc23)cc1` [Compound 3], on Mcl-1 [1] (competitive FP), the half-maximal inhibitory concentration (IC50) is 11.5 ± 0.78 µM. Moreover, on Mcl-1 [1] (setting [4]), the Ki is 3.13 ± 0.22 µM.
With `CC(C)(C)c1ccc(S(=O)(=O)Nc2cc(SCC(=O)O)c(O)c3ccccc23)cc1` [Compound 6], the IC50 at Mcl-1 [1] (competitive FP) turned out to be 3.03 ± 0.17 µM. On Mcl-1 [1] (setting [4]), the Ki is 0.81 ± 0.04 µM.
Regarding `CS(=O)(=O)Nc1cc(SCC(=O)O)c(O)c2ccccc12` [Compound 21, 2-((1-Hydroxy-4-(methylsulfonamido)naphthalen-2-yl)thio)acetic acid], the half-inhibitory concentration (IC50) at Mcl-1 [1] (competitive FP) is over 200 µM. In addition, the Ki on Mcl-1 [1] (setting [4]) was over 50 µM.
`O=C(O)CSc1cc(NS(=O)(=O)c2cccc(-c3ccccc3)c2)c2ccccc2c1O` [Compound 15, 2-((4-([1,1′-Biphenyl]-3-ylsulfonamido)-1-hydroxynaphthalen-2-yl)thio)acetic acid]: the “fold improved binding” value at Mcl-1 [1] was determined as 9 fold. Also, the IC50 at Mcl-1 [1] (competitive FP) is 1.41 ± 0.17 µM. Moreover, the Ki on Mcl-1 [1] was found to be 0.38 ± 0.03 µM; on A1/Bfl-1, 3.18 ± 0.41 µM; at Bcl-w, 2.19 ± 0.45 µM; on Bcl-xL, 15.1 ± 1.11 µM.
As for `O=C(O)CSc1cc(NS(=O)(=O)c2ccc(Cl)cc2)c2ccccc2c1O` [Compound 8, 2-((4-(4-Chlorophenylsulfonamido)-1-hydroxynaphthalen-2-yl)thio)acetic acid], at Mcl-1 [1] (competitive FP), the IC50 is 3.08 ± 0.35 µM. In addition, the Ki at Mcl-1 [1] was found to be 0.82 ± 0.1 µM.
For the molecule `CCCCSc1cc(NS(=O)(=O)c2ccc(Br)cc2)c2ccccc2c1O` [Compound 30, 4-Bromo-N-(3-(butylthio)-4-hydroxynaphthalen-1-yl)benzenesulfonamide], the “binding to Mcl-1, result in words” value on Mcl-1 [1] (FP assay) is listed as “abolished the binding to Mcl-1 protein”. In addition, the 50% inhibitory concentration (IC50) at Mcl-1 [1] (competitive FP) is over 100 µM. At Mcl-1 [1] (setting [4]), the Ki was over 25 µM.
With `COC(=O)CSc1cc(NS(=O)(=O)c2ccc(Br)cc2)c2ccccc2c1OC` [Compound 40d, Methyl 2-((4-(4-bromophenylsulfonamido)-1-methoxynaphthalen-2-yl)thio)acetate], the IC50 on Mcl-1 [1] (competitive FP) is over 800 µM. Also, the Ki at Mcl-1 [1] (setting [4]) is over 200 µM.
Consider `CN(C)CC[C@H](CSc1ccccc1)Nc1ccc(S(=O)(=O)NC(=O)c2ccc(N3CCN(Cc4ccccc4-c4ccc(Cl)cc4)CC3)cc2)cc1[N+](=O)[O-]` [ABT-737], for which, on Mcl-1 [3], the “binding to Mcl-1, result in words” value is reported as “fails to bind to Mcl-1”.
Regarding `O=C(O)CSc1cc(NC(=O)c2ccc(Br)cc2)c2ccccc2c1O` [Compound 23, 2-((4-(4-Bromobenzamido)-1-hydroxynaphthalen-2-yl)thio)acetic acid], the IC50 on Mcl-1 [1] (competitive FP) is over 100 µM. On Mcl-1 [1] (setting [4]), the Ki is over 25 µM.
